Data from the supplement of paper PMC4862054.

Experiments:
Conditions in all cases: incubation time: 72 h
[1] = test system: BT-474; experiment: normalised response (% of control), CellTiter-Glo; higher = more viable cells (100 = DMSO, 0 = benzethonium chloride kill control)
Summary of the method: (§1)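 Breast cancer cell lines (20 µl suspension) were seeded into 384-well plates holding compound at 5 concentrations in 10-fold steps over a compound-specific 10,000-fold range, then incubated 72 h. CellTox Green fluorescence (485/520 nm) was read first, then CellTiter-Glo luminescence after 10 min at room temperature. Each plate was normalised to 0.1 % DMSO (100) and a positive kill control (0). Each value is the normalised signal at a single concentration of the series.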

[2] = test system: BT-549; experiment: as above
Summary of the method: as §1

[3] = test system: CAL-120; experiment: as above
Summary of the method: as §1

[4] = test system: CAL-148; experiment: as above
Summary of the method: as §1

[5] = test system: CAL-51; experiment: as above
Summary of the method: as §1

[6] = test system: CAL-85-1; experiment: as above
Summary of the method: as §1

[7] = test system: DU-4475; experiment: as above
Summary of the method: as §1

[8] = test system: HCC1143; experiment: as above
Summary of the method: as §1

[9] = test system: HCC1599; experiment: as above
Summary of the method: as §1

[10] = test system: HCC1937; experiment: as above
Summary of the method: as §1

[11] = test system: HDQ-P1; experiment: as above
Summary of the method: as §1

[12] = test system: Hs578T; experiment: as above
Summary of the method: as §1

[13] = test system: MCF-10A; experiment: as above
Summary of the method: as §1

[14] = test system: MDA-MB-231; experiment: as above
Summary of the method: as §1

[15] = test system: MDA-MB-436; experiment: as above
Summary of the method: as §1

[16] = test system: MDA-MB-453; experiment: as above
Summary of the method: as §1

[17] = test system: MDA-MB-468; experiment: as above
Summary of the method: as §1

[18] = test system: MFM-223; experiment: as above
Summary of the method: as §1

[19] = test system: SK-BR-3; experiment: as above
Summary of the method: as §1

[20] = test system: BT-474; experiment: normalised viability (% of control), CellTiter-Blue; higher = more viable cells (100 = DMSO, 0 = benzethonium chloride kill control)
Method: (§2)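 DSRT, CellTiter-Blue viability, 72 h incubation. Signal is normalised to DMSO and benzethonium chloride controls. Value is the normalised response at dose 1.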

[21] = test system: BT-549; experiment: as above
Method: as §2

[22] = test system: CAL-120; experiment: as above
Method: as §2

[23] = test system: CAL-148; experiment: as above
Method: as §2

[24] = test system: CAL-51; experiment: as above
Method: as §2

[25] = test system: CAL-85-1; experiment: as above
Method: as §2

[26] = test system: DU-4475; experiment: as above
Method: as §2

[27] = test system: HCC1143; experiment: as above
Method: as §2

[28] = test system: HCC1599; experiment: as above
Method: as §2

[29] = test system: HCC1937; experiment: as above
Method: as §2

[30] = test system: HDQ-P1; experiment: as above
Method: as §2

[31] = test system: Hs578T; experiment: as above
Method: as §2

[32] = test system: MDA-MB-231; experiment: as above
Method: as §2

[33] = test system: MDA-MB-436; experiment: as above
Method: as §2

[34] = test system: MDA-MB-453; experiment: as above
Method: as §2

[35] = test system: MDA-MB-468; experiment: as above
Method: as §2

[36] = test system: MFM-223; experiment: as above
Method: as §2

[37] = test system: SK-BR-3; experiment: as above
Method: as §2

Row | SMILES | normalised response [1] | normalised response [2] | normalised response [3] | normalised response [4] | normalised response [5] | normalised response [6] | normalised response [7] | normalised response [8] | normalised response [9] | normalised response [10] | normalised response [11] | normalised response [12] | normalised response [13] | normalised response [14] | normalised response [15] | normalised response [16] | normalised response [17] | normalised response [18] | normalised response [19] | normalised viability [20] | normalised viability [21] | normalised viability [22] | normalised viability [23] | normalised viability [24] | normalised viability [25] | normalised viability [26] | normalised viability [27] | normalised viability [28] | normalised viability [29] | normalised viability [30] | normalised viability [31] | normalised viability [32] | normalised viability [33] | normalised viability [34] | normalised viability [35] | normalised viability [36] | normalised viability [37]
1 | Cc1ccc(C(=O)N(CCCN)[C@@H](c2oc3cc(Cl)ccc3c(=O)c2Cc2ccccc2)C(C)C)cc1 (0.1 nM) | 97.8% | 99.1% | 100% | 101% | 98.9% | 96% | 96% | 96.8% | 101% | 101% | 100% | 102% | 90.2% | 98.7% | 106% | 100% | 89.2% | 93.2% | 89% | 68.8% | 100% | 90.3% | 111% | 103% | 86.1% | 95.9% | 101% | 108% | 93% | 126% | 135% | 90.4% | 111% | 101% | 97.3% | 105% | 105%
2 | CCC1(c2ccc(N)cc2)CCC(=O)NC1=O (centres undefined) [Aminoglutethimide] (1 nM) | 103% | 106% | 106% | 108% | 112% | 109% | 99.1% | 97% | 91.7% | 96.2% | 98.4% | 96.9% | 97.8% | 110% | 87.3% | 98.6% | 104% | 99.8% | 103% | 91.1% | 93.2% | 110% | 107% | 86.1% | 115% | 98.7% | 109% | 95.7% | 97.3% | 92.7% | 107% | 85.4% | 98.2% | 89.7% | 97.1% | 108% | 90%
3 | CO[C@H]1/C=C\C=C(/C)C(=O)NC2=CC(=O)C(NCCN(C)C)=C(C[C@@H](C)C[C@H](OC)[C@H](O)[C@@H](C)/C=C(\C)[C@@H]1OC(N)=O)C2=O [Alvespimycin] (0.1 nM) | 105% | 105% | 105% | 106% | 69.6% | 100% | 109% | 95.1% | 112% | 92.7% | 94.8% | 91.2% | 101% | 98.5% | 97.5% | 111% | 116% | 107% | 111% | 102% | 91.9% | 100% | 102% | 92.8% | 102% | 108% | 103% | 76% | 113% | 105% | 117% | 99.7% | 98% | 99.2% | 104% | 99.9% | 104%
4 | C#Cc1cccc(Nc2ncnc3cc(OCCOC)c(OCCOC)cc23)c1 [Erlotinib] (1 nM) | 101% | 106% | 96.1% | 103% | 107% | 102% | 106% | 101% | 97.1% | 104% | 100% | 106% | 115% | 101% | 131% | 116% | 93% | 105% | 100% | 95% | 111% | 85% | 97.8% | 98.2% | 95.3% | 89% | 86.6% | 80.1% | 102% | 102% | 84% | 107% | 99.6% | 99.8% | 107% | 98.8% | 108%
5 | C[C@@H](Oc1cc(-c2cnn(C3CCNCC3)c2)cnc1N)c1c(Cl)ccc(F)c1Cl [Crizotinib] (1 nM) | 101% | 91.8% | 91.7% | 91.3% | 117% | 96.6% | 105% | 102% | 106% | 105% | 96.4% | 101% | 94.9% | 108% | 103% | 100% | 99.8% | 101% |  | 113% | 75.4% | 90.6% | 101% | 108% | 83.9% | 101% | 86.5% | 85.4% | 105% | 61.5% | 90.5% | 93.3% | 74.1% | 95.3% | 91.4% | 87.8% | 98.5%
6 | COc1cc2nccc(Oc3ccc(NC(=O)C4(C(=O)Nc5ccc(F)cc5)CC4)cc3)c2cc1OC [Cabozantinib] (0.1 nM) | 101% | 102% | 103% | 99.7% | 87.8% | 97.1% | 95.2% | 96.2% | 113% | 100% | 95.2% | 100% | 92.2% | 104% | 83.3% | 116% | 103% | 99.5% | 97.5% | 100% | 115% | 83.8% | 107% | 103% | 90.2% | 101% | 95.4% | 77.6% | 94.8% | 96.1% | 97.4% | 115% | 103% | 99.4% | 105% | 93% | 101%
7 | COc1cc([C@@H]2c3cc4c(cc3[C@@H](O[C@@H]3O[C@@H]5CO[C@@H](C)O[C@H]5[C@H](O)[C@H]3O)[C@H]3COC(=O)[C@H]23)OCO4)cc(OC)c1O [Etoposide] (1 nM) | 103% | 114% | 101% | 104% | 134% | 98.6% | 106% | 110% | 107% | 98.8% | 105% | 105% | 110% | 113% | 128% | 106% | 101% | 107% | 109% | 91.5% | 96.9% | 98.1% | 110% | 87.8% | 99% | 112% | 107% | 121% | 86% | 96.3% | 97.3% | 90.8% | 105% | 103% | 98% | 100% | 97.5%
8 | C[C@]12CC[C@@H]3c4ccc(O)cc4C[C@@H](CCCCCCCCC[S+]([O-])CCCC(F)(F)C(F)(F)F)[C@H]3[C@@H]1CC[C@@H]2O (some centres undefined) [Fulvestrant] (1 nM) | 103% | 98.4% | 97.4% | 103% | 119% | 101% | 102% | 105% | 90.3% | 96.9% | 99.3% | 111% | 103% | 101% | 105% | 112% | 97.8% | 104% |  | 70.6% | 89.9% | 77.8% | 102% | 111% | 78.7% | 97.6% | 79.1% | 94.6% | 87.6% | 93.6% | 90.2% | 79% | 106% | 100% | 93.2% | 74.9% | 108%
